Reference: article PMC6321168, “Comparative Study on Excretive Characterization of Main Components in Herb Pair Notoginseng-Safflower and Single Herbs by LC–MS/MS” (Pharmaceutics, 2018)

Experiment: Fecal excretion study in rats after oral NS, SF or CNS (LC–MS/MS)
Format: in vivo
Conditions: rat feces
Experimental: The animal room was set at constant temperature of 20 ± 2 °C with humidity of 50 ± 20% and 12/12 h light/dark cycle.
Eighteen male rats were fasted for 12 h before starting the experiment. The rats were divided into three groups at random (n = 6) and received NS (60 mg/kg), SF (50 mg/kg), and NS (60 mg/kg) + SF (50 mg/kg), respectively, by oral gavage. The rats were placed in separate metabolic cages. The urine samples were collected at 0–2, 2–4, 4–6, 6–8, 8–12, 12–24, 24–36, 36–48, 48–72, 72–96, and 96–120 h. The feces samples were collected at 0–4, 4–8, 8–12, 12–24, 24–36, 36–48, 48–72, 72–96, and 96–120 h. The urine volume was recorded and the dry feces were measured for each collection period. Samples were stored at −80 °C until analysis.
Feces samples were homogenized in ultrapure water (1 g/15 mL), soaked for 30 min, ultrasonically extracted for 30 min and centrifuged at 9000 rpm for 8 min. An aliquot of 200 μL feces water extraction solution was mixed with 10 μL of IS and then extracted three times with water-saturated n-BuOH (150 μL). The upper organic phase was combined and evaporated to dryness using a ZLS-2 vacuum centrifugal concentrator. The residue was treated as the urine sample and a 1-μL aliquot was injected for LC–MS analysis.
Ultra fast liquid chromatography (UFLC) analysis was performed using a Shimadzu UFLC system (DGU-20A3R Degasser; LC-20AD pump; SIL-20AXR Autosampler; CTO-20AC Column Oven) (Nakagyo-Ku, Koyoto, Japan). […] Because of the different endogenous substances in the urine and feces samples, different elution gradients were used to alleviate the matrix effects for the analytes.
The mass spectrometric detection was performed on an ABSciex 4500 Qtrap mass spectrometer (ABSciex, Foster City, CA, USA) equipped with a negative electrospray ionization (ESI) interface using multiple reaction monitoring (MRM). The MS parameters were optimized under the selected ion monitoring conditions as follows: curtain gas, 35 psi; ionspray voltage, 4500 V; turbo gas temperature, 450 °C; GS1, 45 psi; GS2, 45 psi. All data were acquired and analyzed by Analyst software (Versions 1.6.2) from ABSciex.
The accumulative excretion percentage was calculated for each analyte as follows. Excretion at time (t) = [concentration of the analyte (ng/mL) at t] × total urine (or feces) volume (mL) at t. The cumulative excretion up to time t (mg) was expressed as a percent (%) cumulative excretion by dividing by the total amount of the analyte ingested (mg): % Cumulative Excretion = 100 × (Σt excretiont) total ingested.

## CC(C)=CCC[C@](C)(O[C@@H]1O[C@H](CO)[C@@H](O)[C@H](O)[C@H]1O)[C@H]1CC[C@]2(C)[C@@H]1[C@H](O)C[C@@H]1[C@@]3(C)CC[C@H](O[C@@H]4O[C@H](CO)[C@@H](O)[C@H](O)[C@H]4O[C@@H]4O[C@H](CO)[C@@H](O)[C@H](O)[C@H]4O)C(C)(C)[C@@H]3CC[C@]12C [ginsenoside Rd]
male, Sprague Dawley, oral CNS 110 mg/kg, 4 h
  concentration at 4 h: 204 ± 283 ng/mL
male, Sprague Dawley, oral CNS 110 mg/kg, 8 h
  concentration at 8 h: 274 ± 65 ng/mL
male, Sprague Dawley, oral CNS 110 mg/kg, 12 h
  concentration at 12 h: 164 ± 12 ng/mL
male, Sprague Dawley, oral CNS 110 mg/kg, 24 h
  concentration at 24 h: 119 ± 51 ng/mL
male, Sprague Dawley, oral CNS 110 mg/kg, 36 h
  concentration at 36 h: 653 ± 41 ng/mL
male, Sprague Dawley, oral CNS 110 mg/kg, 48 h
  concentration at 48 h: 658 ± 72 ng/mL
male, Sprague Dawley, oral CNS 110 mg/kg, 72 h
  concentration at 72 h: 153 ± 72 ng/mL
male, Sprague Dawley, oral CNS 110 mg/kg, 96 h
  concentration at 96 h: 35 ± 34 ng/mL
male, Sprague Dawley, oral NS 60 mg/kg, 4 h
  concentration at 4 h: 752 ± 79 ng/mL
male, Sprague Dawley, oral NS 60 mg/kg, 8 h
  concentration at 8 h: 605 ± 22 ng/mL
male, Sprague Dawley, oral NS 60 mg/kg, 12 h
  concentration at 12 h: 602 ± 49 ng/mL
male, Sprague Dawley, oral NS 60 mg/kg, 24 h
  concentration at 24 h: 670 ± 34 ng/mL
male, Sprague Dawley, oral NS 60 mg/kg, 36 h
  concentration at 36 h: 505 ± 14 ng/mL
male, Sprague Dawley, oral NS 60 mg/kg, 48 h
  concentration at 48 h: 704 ± 26 ng/mL
male, Sprague Dawley, oral NS 60 mg/kg, 72 h
  concentration at 72 h: 122 ± 5 ng/mL
male, Sprague Dawley, oral NS 60 mg/kg, 96 h
  concentration at 96 h: 17 ± 1 ng/mL
male, Sprague Dawley, oral NS 60 mg/kg, 120 h
  concentration at 120 h: 15 ± 2 ng/mL
Oral CNS 110 mg/kg, 4 h
  Accumulative excretion amount: 2.579 ± 3.701 µg
  Accumulative excretion percentage: 0.343±0.491%
  Excretion amount: 2.579 ± 3.701 µg
Oral CNS 110 mg/kg, 8 h
  Accumulative excretion amount: 6.687 ± 3.535 µg
  Accumulative excretion percentage: 0.883±0.462%
  Excretion amount: 4.108 ± 1.195 µg
Oral CNS 110 mg/kg, 12 h
  Accumulative excretion amount: 9.145 ± 3.524 µg
  Accumulative excretion percentage: 1.204±0.465%
  Excretion amount: 2.459 ± 0.753 µg
Oral CNS 110 mg/kg, 24 h
  Accumulative excretion amount: 11.000 ± 3.256 µg
  Accumulative excretion percentage: 1.453±0.432%
  Excretion amount: 1.855 ± 1.046 µg
Oral CNS 110 mg/kg, 36 h
  Accumulative excretion amount: 20.700 ± 5.415 µg
  Accumulative excretion percentage: 2.724±0.715%
  Excretion amount: 9.700 ± 2.660 µg
Oral CNS 110 mg/kg, 48 h
  Accumulative excretion amount: 30.478 ± 7.801 µg
  Accumulative excretion percentage: 4.011±1.032%
  Excretion amount: 9.778 ± 2.743 µg
Oral CNS 110 mg/kg, 72 h
  Accumulative excretion amount: 32.881 ± 8.515 µg
  Accumulative excretion percentage: 4.322±1.123%
  Excretion amount: 2.403 ± 1.477 µg
Oral CNS 110 mg/kg, 96 h
  Accumulative excretion amount: 33.451 ± 8.722 µg
  Accumulative excretion percentage: 4.403±1.154%
  Excretion amount: 0.570 ± 0.568 µg
Oral CNS 110 mg/kg, 120 h
  Accumulative excretion percentage: 4.404±1.151%
Oral NS 60 mg/kg, 4 h
  Accumulative excretion amount: 10.755 ± 3.385 µg
  Accumulative excretion percentage: 1.232±0.395%
  Excretion amount: 10.755 ± 3.385 µg
Oral NS 60 mg/kg, 8 h
  Accumulative excretion amount: 19.476 ± 6.086 µg
  Accumulative excretion percentage: 2.244± 0.706%
  Excretion amount: 8.721 ± 2.813 µg
Oral NS 60 mg/kg, 12 h
  Accumulative excretion amount: 28.152 ± 8.861 µg
  Accumulative excretion percentage: 3.232±1.024%
  Excretion amount: 8.676 ± 2.808 µg
Oral NS 60 mg/kg, 24 h
  Accumulative excretion amount: 37.713 ± 11.637 µg
  Accumulative excretion percentage: 4.331±1.342%
  Excretion amount: 9.562 ± 2.795 µg
Oral NS 60 mg/kg, 36 h
  Accumulative excretion amount: 45.004 ± 14.004 µg
  Excretion amount: 7.290 ± 2.427 µg
Oral NS 60 mg/kg, 48 h
  Accumulative excretion amount: 55.154 ± 17.338 µg
  Accumulative excretion percentage: 6.332±1.991%
  Excretion amount: 10.151 ± 3.361 µg
Oral NS 60 mg/kg, 72 h
  Accumulative excretion amount: 56.907 ± 17.892 µg
  Accumulative excretion percentage: 6.534±2.048%
  Excretion amount: 1.753 ± 0.562 µg
Oral NS 60 mg/kg, 96 h
  Accumulative excretion amount: 57.148 ± 17.967 µg
  Accumulative excretion percentage: 6.563±2.059%
  Excretion amount: 0.241 ± 0.076 µg
Oral NS 60 mg/kg, 120 h
  Accumulative excretion amount: 57.371 ± 18.037 µg
  Accumulative excretion percentage: 6.589±2.068%
  Excretion amount: 0.223 ± 0.076 µg
